Laboratory results as given in paper PMC5285354, “Cationic Net Charge and Counter Ion Type as Antimicrobial Activity Determinant Factors of Short Lipopeptides” (Frontiers in Microbiology, 2017).
≈ marks a conversion by molar mass, not a printed value. Where a SMILES comes first, the peptide text is derived from it. The star is where a group is joined. Myristoyl = CCCCCCCCCCCCCC(=O)*

What was measured:
Type in all cases: cell-based
[1] = tested on: Bacillus subtilis (ATCC 6633); conditions: for MIC Bacillus subtillis: ATCC 6633, 18 h; for MBC Bacillus subtillis: ATCC 6633, 24 h
Outline: (§1)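 Lowest lipopeptide concentration (μg/mL) with no observable growth gave the MIC, alongside MBC/MFC, by CLSI microbroth dilution. Fungi: Sabouraud dextrose broth, 10^3 cfu/mL start, 25°C for 48 h; bacteria: MH broth, 10^5 cfu/mL, 37°C for 18 h. Run in triplicate, three separate days.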

[2] = tested on: Escherichia coli (ATCC 25922); conditions: for MBC Escherichia coli, lipopeptides without TFA counter ion / MIC Escherichia coli / MIC Escherichia coli, lipopeptides without TFA counter ion: ATCC 25922, 18 h; for MBC Escherichia coli: ATCC 25922, 24 h
Outline: (§2)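 MIC in μg/mL, read as the lowest lipopeptide level with no observable growth. Microbroth dilution followed CLSI guidance, using MH broth, 10^5 cfu/mL and 18 h at 37°C for bacterial strains, or Sabouraud Dextrose broth, 10^3 cfu/mL and 48 h at 25°C for yeasts.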

[3] = tested on: Enterococcus faecalis (ATCC 29212); conditions: for MBC Enterococcus fecalis, lipopeptides without TFA counter ion / MIC Enterococcus fecalis / MIC Enterococcus fecalis, lipopeptides without TFA counter ion: ATCC 29212, 18 h; for MBC Enterococcus fecalis: ATCC 29212, 24 h
Outline: as §1

[4] = tested on: Klebsiella pneumoniae (ATCC 700603); conditions: for MBC Klebsiella pneumoniae, lipopeptides without TFA counter ion / MIC Klebsiella pneumoniae / MIC Klebsiella pneumoniae, lipopeptides without TFA counter ion: ATCC 700603, 18 h; for MBC Klebsiella pneumoniae: ATCC 700603, 24 h
Outline: as §2

[5] = tested on: Pseudomonas aeruginosa (ATCC 9027); conditions: ATCC 9027, 18 h
Outline: as §2

[6] = tested on: Staphylococcus aureus (ATCC 25923); conditions: for MBC Staphylococcus aureus, lipopeptides without TFA counter ion / MIC Staphylococcus aureus / MIC Staphylococcus aureus, lipopeptides without TFA counter ion: ATCC 25923, 18 h; for MBC Staphylococcus aureus: ATCC 25923, 24 h
Outline: as §2

[7] = tested on: Candida albicans (ATCC 10231); conditions: ATCC 10231, 48 h
Outline: as §2

[8] = tested on: Candida tropicalis (PCM 2681); conditions: PCM 2681, 48 h
Outline: as §2

[9] = tested on: Proteus vulgaris (PCM 2668); conditions: 18 h
Outline: as §2

[10] = tested on: Staphylococcus epidermidis (PCM 2118); conditions: for MIC Staphylococcus epidermidis: PCM 2118, 18 h; for MBC Staphylococcus epidermidis: PCM 2118, 24 h
Outline: as §1

[11] = tested on: Aspergillus brasiliensis (ATCC 16404); conditions: ATCC 16404, 48 h
Outline: as §1

[12] = tested on: Pseudomonas aeruginosa (ATCC 9027); conditions: ATCC 9027, 24 h
[13] = tested on: Candida albicans (ATCC 10231)
human red blood cells = conditions: 1 h
Outline: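 Washed donor erythrocytes (4% v/v in PBS, EDTA-anticoagulated) incubated with graded lipopeptide concentrations for 1 h at 37 °C; hemoglobin release read at 550 nm in supernatants. Scaled between 0.1% Triton X-100 (100%) and PBS (0%); MHC is the lowest concentration giving 10% hemolysis.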

[14] = tested on: Proteus vulgaris (PCM 2668); conditions: 24 h

| Compound | MIC Bacillus subtillis [1] [mg/L] | MBC Bacillus subtillis [1] [mg/L] | MBC Escherichia coli, lipopeptides without TFA counter ion [2] [mg/L] | MIC Escherichia coli [2] [mg/L] | MIC Escherichia coli, lipopeptides without TFA counter ion [2] [mg/L] | MBC Escherichia coli [2] [mg/L] | MBC Enterococcus fecalis, lipopeptides without TFA counter ion [3] [mg/L] | MIC Enterococcus fecalis [3] [mg/L] | MIC Enterococcus fecalis, lipopeptides without TFA counter ion [3] [mg/L] | MBC Enterococcus fecalis [3] [mg/L] | MBC Klebsiella pneumoniae, lipopeptides without TFA counter ion [4] [mg/L] | MIC Klebsiella pneumoniae [4] [mg/L] | MIC Klebsiella pneumoniae, lipopeptides without TFA counter ion [4] [mg/L] | MBC Klebsiella pneumoniae [4] [mg/L] | MIC Pseudomonas aeruginosa [5] [mg/L] | MBC Staphylococcus aureus, lipopeptides without TFA counter ion [6] [mg/L] | MIC Staphylococcus aureus [6] [mg/L] | MIC Staphylococcus aureus, lipopeptides without TFA counter ion [6] [mg/L] | MBC Staphylococcus aureus [6] [mg/L] | MFC Candida albicans [7] [mg/L] | also measured |
| --- | --- | --- | --- | --- | --- | --- | --- | --- | --- | --- | --- | --- | --- | --- | --- | --- | --- | --- | --- | --- | --- |
| CCCCCCCCCCCCCC(=O)N[C@@H](CCCCN)C(=O)NCC(=O)N[C@@H](CCCCN)C(=O)NCC(N)=O [C14-KGKG-NH2] (Myristoyl-KGKG-NH2) | 16 (≈ 26.8 µM) | 16 (≈ 26.8 µM) | 128 (≈ 214 µM) | 128 (≈ 214 µM) | 128 (≈ 214 µM) | 128 (≈ 214 µM) | 64 (≈ 107 µM) | 64 (≈ 107 µM) | 64 (≈ 107 µM) | 64 (≈ 107 µM) | 128 (≈ 214 µM) | 128 (≈ 214 µM) | 128 (≈ 214 µM) | 128 (≈ 214 µM) | 64 (≈ 107 µM) | 64 (≈ 107 µM) | 64 (≈ 107 µM) | 64 (≈ 107 µM) | 128 (≈ 214 µM) | 128 (≈ 214 µM) | MIC Candida albicans [7]: 128 mg/L (≈ 214 µM); MIC Candida albicans, lipopeptides without TFA counter ion [7]: 256 mg/L (≈ 428 µM); MFC Candida tropicalis [8]: 512 mg/L (≈ 856 µM); MIC Candida tropicalis [8]: 512 mg/L (≈ 856 µM); MIC Proteus vulgaris [9]: >512 mg/L; MIC Staphylococcus epidermidis [10]: 32 mg/L (≈ 53.5 µM); MBC Staphylococcus epidermidis [10]: 32 mg/L (≈ 53.5 µM); MFC Aspergillus brasiliensis [11]: 128 mg/L (≈ 214 µM); MIC Aspergillus brasiliensis [11]: 128 mg/L (≈ 214 µM); MBC Pseudomonas aeruginosa [12]: 128 mg/L (≈ 214 µM); MFC Candida albicans, lipopeptides without TFA counter ion [13]: 256 mg/L (≈ 428 µM); Hemolysis HC10 (MHC), concentration of lipopeptide inducing 10% of hemolysis (human red blood cells): 512 µg/mL; MBC Proteus vulgaris [14]: >512 mg/L |
| CCCCCCCCCCCCCC(=O)N[C@@H](CCCCN)C(=O)N[C@@H](CCCCN)C(N)=O [C14-KK-NH2] | 4 (≈ 8.27 µM) | 4 (≈ 8.27 µM) | 64 (≈ 132 µM) | 64 (≈ 132 µM) | 32 (≈ 66.2 µM) | 128 (≈ 265 µM) | 32 (≈ 66.2 µM) | 32 (≈ 66.2 µM) | 32 (≈ 66.2 µM) | 64 (≈ 132 µM) | 128 (≈ 265 µM) | 128 (≈ 265 µM) | 128 (≈ 265 µM) | 128 (≈ 265 µM) | 32 (≈ 66.2 µM) | 64 (≈ 132 µM) | 64 (≈ 132 µM) | 32 (≈ 66.2 µM) | 64 (≈ 132 µM) | 128 (≈ 265 µM) | MIC Candida albicans [7]: 128 mg/L (≈ 265 µM); MIC Candida albicans, lipopeptides without TFA counter ion [7]: 256 mg/L (≈ 529 µM); MFC Candida tropicalis [8]: 256 mg/L (≈ 529 µM); MIC Candida tropicalis [8]: 256 mg/L (≈ 529 µM); MIC Proteus vulgaris [9]: >512 mg/L; MIC Staphylococcus epidermidis [10]: 4 mg/L (≈ 8.27 µM); MBC Staphylococcus epidermidis [10]: 4 mg/L (≈ 8.27 µM); MFC Aspergillus brasiliensis [11]: 256 mg/L (≈ 529 µM); MIC Aspergillus brasiliensis [11]: 256 mg/L (≈ 529 µM); MBC Pseudomonas aeruginosa [12]: 64 mg/L (≈ 132 µM); MFC Candida albicans, lipopeptides without TFA counter ion [13]: 256 mg/L (≈ 529 µM); Hemolysis HC10 (MHC), concentration of lipopeptide inducing 10% of hemolysis (human red blood cells): 128 µg/mL; MBC Proteus vulgaris [14]: >512 mg/L |
| CCCCCCCCCCCCCC(=O)N[C@@H](CCCCN)C(=O)N[C@@H](CCCCN)C(=O)N[C@@H](CCCCN)C(N)=O [C14-KKK-NH2] | 4 (≈ 6.54 µM) | 4 (≈ 6.54 µM) | 128 (≈ 209 µM) | 128 (≈ 209 µM) | 128 (≈ 209 µM) | 128 (≈ 209 µM) | 64 (≈ 105 µM) | 64 (≈ 105 µM) | 32 (≈ 52.3 µM) | 64 (≈ 105 µM) | 256 (≈ 418 µM) | 128 (≈ 209 µM) | 128 (≈ 209 µM) | 128 (≈ 209 µM) | 32 (≈ 52.3 µM) | 32 (≈ 52.3 µM) | 64 (≈ 105 µM) | 32 (≈ 52.3 µM) | 64 (≈ 105 µM) | 128 (≈ 209 µM) | MIC Candida albicans [7]: 128 mg/L (≈ 209 µM); MIC Candida albicans, lipopeptides without TFA counter ion [7]: 256 mg/L (≈ 418 µM); MFC Candida tropicalis [8]: 128 mg/L (≈ 209 µM); MIC Candida tropicalis [8]: 128 mg/L (≈ 209 µM); MIC Proteus vulgaris [9]: >512 mg/L; MIC Staphylococcus epidermidis [10]: 8 mg/L (≈ 13.1 µM); MBC Staphylococcus epidermidis [10]: 8 mg/L (≈ 13.1 µM); MFC Aspergillus brasiliensis [11]: 64 mg/L (≈ 105 µM); MIC Aspergillus brasiliensis [11]: 64 mg/L (≈ 105 µM); MBC Pseudomonas aeruginosa [12]: 128 mg/L (≈ 209 µM); MFC Candida albicans, lipopeptides without TFA counter ion [13]: 256 mg/L (≈ 418 µM); Hemolysis HC10 (MHC), concentration of lipopeptide inducing 10% of hemolysis (human red blood cells): 256 µg/mL; MBC Proteus vulgaris [14]: >512 mg/L |
| CCCCCCCCCCCCCC(=O)N[C@@H](CCCCN)C(=O)N[C@@H](CCCCN)C(=O)N[C@@H](CCCCN)C(=O)N[C@@H](CCCCN)C(N)=O [C14-KKKK-NH2] (Myristoyl-KKKK-NH2) | 4 (≈ 5.4 µM) | 4 (≈ 5.4 µM) | 256 (≈ 346 µM) | 256 (≈ 346 µM) | 256 (≈ 346 µM) | 256 (≈ 346 µM) | 64 (≈ 86.5 µM) | 64 (≈ 86.5 µM) | 64 (≈ 86.5 µM) | 64 (≈ 86.5 µM) | 128 (≈ 173 µM) | 128 (≈ 173 µM) | 128 (≈ 173 µM) | 256 (≈ 346 µM) | 256 (≈ 346 µM) | 128 (≈ 173 µM) | 128 (≈ 173 µM) | 128 (≈ 173 µM) | 128 (≈ 173 µM) | 128 (≈ 173 µM) | MIC Candida albicans [7]: 128 mg/L (≈ 173 µM); MIC Candida albicans, lipopeptides without TFA counter ion [7]: 256 mg/L (≈ 346 µM); MFC Candida tropicalis [8]: 128 mg/L (≈ 173 µM); MIC Candida tropicalis [8]: 128 mg/L (≈ 173 µM); MIC Proteus vulgaris [9]: >512 mg/L; MIC Staphylococcus epidermidis [10]: 16 mg/L (≈ 21.6 µM); MBC Staphylococcus epidermidis [10]: 16 mg/L (≈ 21.6 µM); MFC Aspergillus brasiliensis [11]: 64 mg/L (≈ 86.5 µM); MIC Aspergillus brasiliensis [11]: 64 mg/L (≈ 86.5 µM); MBC Pseudomonas aeruginosa [12]: 512 mg/L (≈ 692 µM); MFC Candida albicans, lipopeptides without TFA counter ion [13]: 256 mg/L (≈ 346 µM); Hemolysis HC10 (MHC), concentration of lipopeptide inducing 10% of hemolysis (human red blood cells): 256 µg/mL; MBC Proteus vulgaris [14]: >512 mg/L |
| CCCCCCCCCCCCCCCC(=O)N[C@@H](CCCCN)C(N)=O [C16-K-NH2] | 8 (≈ 20.9 µM) | 8 (≈ 20.9 µM) | 512 (≈ 1330 µM) | 512 (≈ 1330 µM) | 512 (≈ 1330 µM) | >512 | 32 (≈ 83.4 µM) | 32 (≈ 83.4 µM) | 32 (≈ 83.4 µM) | 64 (≈ 167 µM) | 512 (≈ 1330 µM) | 512 (≈ 1330 µM) | 512 (≈ 1330 µM) | >512 | 512 (≈ 1330 µM) | 128 (≈ 334 µM) | 512 (≈ 1330 µM) | 128 (≈ 334 µM) | 512 (≈ 1330 µM) | 512 (≈ 1330 µM) | MIC Candida albicans [7]: 512 mg/L (≈ 1330 µM); MIC Candida albicans, lipopeptides without TFA counter ion [7]: 512 mg/L (≈ 1330 µM); MFC Candida tropicalis [8]: >512 mg/L; MIC Candida tropicalis [8]: >512 mg/L; MIC Proteus vulgaris [9]: >512 mg/L; MIC Staphylococcus epidermidis [10]: 8 mg/L (≈ 20.9 µM); MBC Staphylococcus epidermidis [10]: 16 mg/L (≈ 41.7 µM); MFC Aspergillus brasiliensis [11]: >512 mg/L; MIC Aspergillus brasiliensis [11]: >512 mg/L; MBC Pseudomonas aeruginosa [12]: >512 mg/L; MFC Candida albicans, lipopeptides without TFA counter ion [13]: 512 mg/L (≈ 1330 µM); Hemolysis HC10 (MHC), concentration of lipopeptide inducing 10% of hemolysis (human red blood cells): 512 µg/mL; MBC Proteus vulgaris [14]: >512 mg/L |
